Experimental data from US9951068B2 (Proximagen Limited, priority 2013, dated 2018).
pIC50: −log10 of the molar value. Structures can show the parent of a compound that is named as a salt.

biological target: purified recombinantly expressed human SSAO (Homo sapiens (Human), UniProt Q16853); test: SSAO enzyme inhibition assay (HRP-coupled hydrogen peroxide detection or 14C-benzaldehyde detection, benzylamine substrate); assay type: biochemical; settings: SSAO inhibitory activity, human recombinant SSAO, RT
Experimental: All primary assays were performed at RT. with purified recombinantly expressed human SSAO. Enzyme was prepared essentially as described in Öhman et al. (Protein Expression and Purification 46 (2006) 321-331). In addition, secondary- and selectivity assays were performed using SSAO prepared from various tissues or purified rat recombinant SSAO. The enzyme activity was assayed with benzylamine as substrate by measuring either benzaldehyde production, using ^14C-labeled substrate, or by utilizing the production of hydrogen peroxide in a horseradish peroxidase (HRP) coupled reaction. Briefly, test compounds were dissolved in dimethyl sulfoxide (DMSO) to a concentration of 10 mM. Dose-response measurements were assayed by either creating 1:10 serial dilutions in DMSO to produce a 7 point curve or by making 1:3 serial dilutions in DMSO to produce 11 point curves.
In a horseradish peroxidase (HRP) coupled reaction, hydrogen peroxide oxidation of 10-acetyl-3,7-dihydroxyphenoxazine produced resorufin, which is a highly fluorescent compound (Zhout and Panchuk-Voloshina. Analytical Biochemistry 253 (1997) 169-174; Amplex® Red Hydrogen Peroxide/peroxidase Assay kit, Invitrogen A22188). Enzyme and compounds in 50 mM sodium phosphate, pH 7.4 were set to pre-incubate in flat-bottomed microtiter plates for approximately 15 min before initiating the reaction by addition of a mixture of HRP, benzylamine and Amplex reagent. Benzylamine concentration was fixed at a concentration corresponding to the Michaelis constant, determined using standard procedures. Fluorescence intensity was then measured at several time points during 1-2 h, exciting at 544 nm and reading the emission at 590 nm. For the human SSAO assay final concentrations of the reagents in the assay wells were: SSAO enzyme 1 ug/ml, benzylamine 100 uM, Amplex reagent 20 uM, HRP 0.1 U/mL and varying concentrations of test compound. The inhibition was measured as % decrease of the signal compared to a control without inhibitor (only diluted DMSO). The background signal from a sample containing no SSAO enzyme was subtracted from all data points. Data was fitted to a four parameter logistic model and IC50 values were calculated using the GraphPad Prism 4 or XLfit 4 programs.
SSAO activity was assayed using 14C-labeled benzylamine and analysed by measuring radioactive benzaldehyde. In a white 96-well optiplate (Packard), 20 uL of diluted test compound was pre-incubated at room temperature with 20 uL SSAO enzyme for approximately 15 min with continuous agitation. All dilutions were made with PBS. The reaction was initiated by adding 20 uL of the benzylamine substrate solution containing [7-14C] Benzylamine hydrochloride (CFA589, GE Healthcare). The plate was incubated for 1 h as above after which the reaction was stopped by acidification (10 uL 1M aq HCl). Then 90 uL Micro Scint-E solution (Perkin-Elmer) was added to each well and the plate was continuously mixed for 15 min. Phase separation occurred instantly and activity was read in a Topcount scintillation counter (Perkin-Elmer). In the final reaction well, the human recombinant SSAO concentration was 10 ug/ml. In order to optimize sensitivity, the substrate concentration was decreased as compared to the HRP coupled assay in order to get a higher fraction of radioactive product. In the human SSAO assay, benzylamine concentration was 40 uM (0.2 uCi/mL). Data was analysed as above.

Chain of purified recombinantly expressed human SSAO (Q16853 29-763): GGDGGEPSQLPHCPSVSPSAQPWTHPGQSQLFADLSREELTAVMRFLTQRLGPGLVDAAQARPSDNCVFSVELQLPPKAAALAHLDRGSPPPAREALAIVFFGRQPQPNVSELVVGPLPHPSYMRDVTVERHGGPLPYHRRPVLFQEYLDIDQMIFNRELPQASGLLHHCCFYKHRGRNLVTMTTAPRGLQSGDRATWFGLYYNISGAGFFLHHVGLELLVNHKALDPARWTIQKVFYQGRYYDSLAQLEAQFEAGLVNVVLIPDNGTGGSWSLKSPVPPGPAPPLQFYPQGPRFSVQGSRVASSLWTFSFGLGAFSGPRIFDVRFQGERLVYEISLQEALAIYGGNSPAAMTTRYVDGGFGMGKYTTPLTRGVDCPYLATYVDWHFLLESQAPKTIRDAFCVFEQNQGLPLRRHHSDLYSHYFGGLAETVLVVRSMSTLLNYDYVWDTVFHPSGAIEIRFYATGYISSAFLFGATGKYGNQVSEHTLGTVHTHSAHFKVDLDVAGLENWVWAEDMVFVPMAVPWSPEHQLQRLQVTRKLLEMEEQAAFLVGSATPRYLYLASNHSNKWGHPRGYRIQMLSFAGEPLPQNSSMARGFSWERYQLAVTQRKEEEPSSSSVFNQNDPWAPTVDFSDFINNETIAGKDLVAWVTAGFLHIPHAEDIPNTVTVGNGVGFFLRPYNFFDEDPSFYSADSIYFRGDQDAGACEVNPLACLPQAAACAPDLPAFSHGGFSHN

`Clc1ccc(-n2c(-c3ccc(N4CCOCC4)nn3)nc3ccncc32)cc1` [Example 4, 4-{6-[3-(4-Chlorophenyl)-3H-imidazo[4,5-c]pyridin-2-yl]pyridazin-3-yl}morpholine] and `Clc1ccc(-n2c(-c3ccc(N4CCOCC4)nc3)nc3ccncc32)cc1` [Example 47, 4-{5-[3-(4-Chlorophenyl)-3H-imidazo[4,5-c]pyridin-2-yl]pyridin-2-yl}morpholine] cannot be ordered by pIC50: greater than 7.30 for the first, greater than 7.30 for the second.

`NC1CCN(c2ccc(-c3nc4ccncc4n3-c3ccc(Cl)cc3)cn2)CC1` [Example 8, 1-{5-[3-(4-Chlorophenyl)-3H-imidazo[4,5-c]pyridin-2-yl]pyridin-2-yl}piperidin-4-amine] and `CS(=O)(=O)NC1CCN(c2ccc(-c3nc4ccncc4n3-c3ccc(Cl)cc3)cn2)CC1` [Example 88, N-(1-{5-[3-(4-Chlorophenyl)-3H-imidazo[4,5-c]pyridin-2-yl]pyridin-2-yl}piperidin-4-yl)methanesulfonamide] cannot be ordered by pIC50: greater than 7.30 for the first, greater than 7.30 for the second.

`Fc1ccc(-n2c(-c3cnc(NCC4CC4)nc3)nc3ccncc32)cc1` [Example 9, N-(Cyclopropylmethyl)-5-[3-(4-fluorophenyl)-3H-imidazo[4,5-c]pyridin-2-yl]pyrimidin-2-amine] and `COCCCNc1ncc(-c2nc3ccncc3n2-c2ccc(C)cc2)cn1` [Example 37, N-(3-Methoxypropyl)-5-[3-(4-methylphenyl)-3H-imidazo[4,5-c]pyridin-2-yl]pyrimidin-2-amine] cannot be ordered by pIC50: greater than 7.30 for the first, greater than 7.30 for the second.

`Cc1cc(N2CCOCC2)ncc1-c1nc2ccncc2n1-c1ccc(Cl)cc1F` [Example 22, 4-{5-[3-(4-Chloro-2-fluorophenyl)-3H-imidazo[4,5-c]pyridin-2-yl]-4-methylpyridin-2-yl}morpholine] and `Cc1nc(N2CCOCC2)ncc1-c1nc2ccncc2n1-c1ccc(Cl)cc1F` [Example 27, 4-{5-[3-(4-Chloro-2-fluorophenyl)-3H-imidazo[4,5-c]pyridin-2-yl]-4-methylpyrimidin-2-yl}morpholine] cannot be ordered by pIC50: greater than 7.30 for the first, greater than 7.30 for the second.

`Fc1ccc(-n2c(-c3cnc(N4CCCOCC4)nc3)nc3ccncc32)cc1` [Example 25, 4-{5-[3-(4-Fluorophenyl)-3H-imidazo[4,5-c]pyridin-2-yl]pyrimidin-2-yl}-1,4-oxazepane] and `Clc1ccc(-n2c(-c3cnc(N4CCOCC4)nc3)nc3ccncc32)cc1` [Example 51, 4-{5-[3-(4-Chlorophenyl)-3H-imidazo[4,5-c]pyridin-2-yl]pyrimidin-2-yl}morpholine] cannot be ordered by pIC50: greater than 7.30 for the first, greater than 7.30 for the second.

`Cn1ccc(-c2nc3ccncc3n2-c2ccc(Cl)cc2)cc1=O` [Example 32, 4-[3-(4-Chlorophenyl)-3H-imidazo[4,5-c]pyridin-2-yl]-1-methyl-1,2-dihydropyridin-2-one] and `Clc1ccc(-n2c(-c3ccc(Cn4ccnc4)cc3)nc3ccncc32)cc1` [Example 48, 1-({4-[3-(4-Chlorophenyl)-3H-imidazo[4,5-c]pyridin-2-yl]phenyl}methyl)-1H-imidazole] cannot be ordered by pIC50: greater than 7.30 for the first, greater than 7.30 for the second.

`Cc1ccc(-n2c(-c3cnc(NCCOC(C)C)nc3)nc3ccncc32)cc1` [Example 39, 5-[3-(4-Methylphenyl)-3H-imidazo[4,5-c]pyridin-2-yl]-N-[2-(propan-2-yloxy)ethyl]pyrimidin-2-amine] and `CCOCCNc1ncc(-c2nc3ccncc3n2-c2ccc(C)cc2)cn1` [Example 43, N-(2-Ethoxyethyl)-5-[3-(4-methylphenyl)-3H-imidazo[4,5-c]pyridin-2-yl]pyrimidin-2-amine] cannot be ordered by pIC50: greater than 7.30 for the first, greater than 7.30 for the second.

`Fc1ccc(-n2c(-c3ccc(N4CCOCC4)nc3)nc3ccncc32)c(F)c1` [Example 41, 4-{5-[3-(2,4-Difluorophenyl)-3H-imidazo[4,5-c]pyridin-2-yl]pyridin-2-yl}morpholine] and `Fc1ccc(-n2c(-c3ccc(N4CCOCC4)nc3)nc3ccncc32)c(Cl)c1` [Example 61, 4-{5-[3-(2-Chloro-4-fluorophenyl)-3H-imidazo[4,5-c]pyridin-2-yl]pyridin-2-yl}morpholine] cannot be ordered by pIC50: greater than 7.30 for the first, greater than 7.30 for the second.

`Clc1ccc(-n2c(-c3ccc(CN4CCOCC4)cc3)nc3ccncc32)cc1` [Example 49, 4-({4-[3-(4-Chlorophenyl)-3H-imidazo[4,5-c]pyridin-2-yl]phenyl}methyl)morpholine] and `Oc1ccc(-n2c(-c3ccc(N4CCOCC4)nc3)nc3ccncc32)cc1` [Example 65, 4-{2-[6-(Morpholin-4-yl)pyridin-3-yl]-3H-imidazo[4,5-c]pyridin-3-yl}phenol] cannot be ordered by pIC50: greater than 7.30 for the first, greater than 7.30 for the second.

`Cc1cc(F)ccc1-n1c(-c2cnc(N3CCOCC3)nc2)nc2ccncc21` [Example 55, 4-{5-[3-(4-Fluoro-2-methylphenyl)-3H-imidazo[4,5-c]pyridin-2-yl]pyrimidin-2-yl}morpholine] and `Cc1ccc(-n2c(-c3cnc(N4CCOCC4)nc3)nc3ccncc32)nc1` [Example 79, 4-{5-[3-(5-Methylpyridin-2-yl)-3H-imidazo[4,5-c]pyridin-2-yl]pyrimidin-2-yl}morpholine] cannot be ordered by pIC50: greater than 7.30 for the first, greater than 7.30 for the second.

`Cc1ccc(-n2c(-c3ccc(N4CCOCC4)nc3)nc3ccncc32)c(F)c1` [Example 67, 4-{5-[3-(2-Fluoro-4-methylphenyl)-3H-imidazo[4,5-c]pyridin-2-yl]pyridin-2-yl}morpholine] and `Fc1ccccc1-n1c(-c2ccc(N3CCOCC3)nc2)nc2ccncc21` [Example 68, 4-{5-[3-(2-Fluorophenyl)-3H-imidazo[4,5-c]pyridin-2-yl]pyridin-2-yl}morpholine] cannot be ordered by pIC50: greater than 7.30 for the first, greater than 7.30 for the second.

`Fc1cc(Cl)ccc1-n1c(-c2cnc(N3CCCC3)nc2)nc2ccncc21` [Example 83, 5-[3-(4-Chloro-2-fluorophenyl)-3H-imidazo[4,5-c]pyridin-2-yl]-2-(pyrrolidin-1-yl)pyrimidine] and `CN(C)c1ncc(-c2nc3ccncc3n2-c2ccc(Cl)cc2F)cn1` [Example 84, 5-[3-(4-Chloro-2-fluorophenyl)-3H-imidazo[4,5-c]pyridin-2-yl]-N,N-dimethylpyrimidin-2-amine] cannot be ordered by pIC50: greater than 7.30 for the first, greater than 7.30 for the second.

`CC(=O)N1CCCN(c2ccc(-c3nc4ccncc4n3-c3ccc(F)cc3)cn2)CC1` [Example 87, 1-(4-{5-[3-(4-Fluorophenyl)-3H-imidazo[4,5-c]pyridin-2-yl]pyridin-2-yl}-1,4-diazepan-1-yl)ethan-1-one; bis(trifluoroacetic acid)] and `NC(=O)N1CCN(c2ccc(-c3nc4ccncc4n3-c3ccc(Cl)cc3)cn2)CC1` [Example 90, 4-{5-[3-(4-Chlorophenyl)-3H-imidazo[4,5-c]pyridin-2-yl]pyridin-2-yl}piperazine-1-carboxamide dihydrochloride] cannot be ordered by pIC50: greater than 7.30 for the first, greater than 7.30 for the second.

`O=c1cc(N2CCOCC2)[nH]cc1-c1nc2ccncc2n1-c1ccc(F)cc1` [Example 99, 5-[3-(4-Fluorophenyl)-3H-imidazo[4,5-c]pyridin-2-yl]-2-(morpholin-4-yl)-1,4-dihydropyridin-4-one] and `Cc1ccc(-n2c(-c3cnc(N4CCOCC4)cc3C)nc3ccncc32)cn1` [Example 107, 4-{4-Methyl-5-[3-(6-methylpyridin-3-yl)-3H-imidazo[4,5-c]pyridin-2-yl]pyridin-2-yl}morpholine] cannot be ordered by pIC50: greater than 7.30 for the first, greater than 7.30 for the second.

First: Cc1cc(-n2cccn2)ncc1-c1nc2ccncc2n1-c1ccc(F)cc1 [Example 102, 5-[3-(4-Fluorophenyl)-3H-imidazo[4,5-c]pyridin-2-yl]-4-methyl-2-(1H-pyrazol-1-yl)pyridine]
Second: Cc1cc(N(C)C)ncc1-c1nc2ccncc2n1-c1ccc(F)cc1 [Example 111, 5-[3-(4-Fluorophenyl)-3H-imidazo[4,5-c]pyridin-2-yl]-N,N,4-trimethylpyridin-2-amine]
The pIC50 of the first is higher: 6.70 to 7.30 for the first, 5.92 to 6.70 for the second. The first is the more potent here.

`Cc1ccc(-n2c(-c3ccc(N4C[C@@H](C)O[C@@H](C)C4)nc3)nc3ccncc32)nc1` [Example 104, (2R,6S)-2,6-Dimethyl-4-{5-[3-(5-methylpyridin-2-yl)-3H-imidazo[4,5-c]pyridin-2-yl]pyridin-2-yl}morpholine] and `Fc1ccc(-n2c(-c3ccc(OC4CCOC4)nc3)nc3ccncc32)cc1` (centres unmarked) [Example 112, 5-[3-(4-Fluorophenyl)-3H-imidazo[4,5-c]pyridin-2-yl]-2-(oxolan-3-yloxy)pyridine] cannot be ordered by pIC50: greater than 7.30 for the first, greater than 7.30 for the second.
